ChEMBL document CHEMBL1201862, “PubChem BioAssay data set” (2004)
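Values below derive from 48-hour exposures of cells grown in 96-well plates, with endpoints linearly interpolated between the two concentrations bracketing the appropriate inhibition level. Here, GI50 denotes the concentration required for 50% inhibition of growth.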 Calls of active or inactive are those of the source. No stated cut-off is given here; in the data, active = GI50 up to about 1.1 µM and inactive = higher.

Key:
Experiment in all cases: inhibition of tumour cell growth, NCI panel, 48 h
HL-60 = test system: HL-60
TK-10 = test system: TK-10
BT-549 = test system: BT-549
MCF7 = test system: MCF7
PC-3 = test system: PC-3
SK-MEL-2 = test system: SK-MEL-2
CCRF-CEM = test system: CCRF-CEM
SF-268 = test system: SF-268
HCT-15 = test system: HCT-15
HOP-92 = test system: HOP-92
OVCAR-5 = test system: OVCAR-5
NCI-H226 = test system: NCI-H226
NCI/ADR-RES = test system: NCI/ADR-RES
OVCAR-4 = test system: OVCAR-4
OVCAR-8 = test system: OVCAR-8
MDA-MB-231 = test system: MDA-MB-231
ACHN = test system: ACHN
M14 = test system: M14
LOX IMVI = test system: LOX IMVI
U-251 = test system: U-251
CAKI-1 = test system: CAKI-1
HOP-62 = test system: HOP-62
KM12 = test system: KM12
RPMI-8226 = test system: RPMI-8226
SW-620 = test system: SW-620
EKVX = test system: EKVX
SF-295 = test system: SF-295
DU-145 = test system: DU-145
NCI-H522 = test system: NCI-H522
IGROV-1 = test system: IGROV-1
MDA-MB-435 = test system: MDA-MB-435
SF-539 = test system: SF-539
COLO 205 = test system: COLO 205
RXF 393 = test system: RXF 393
786-0 = test system: 786-0
NCI-H23 = test system: NCI-H23
HT-29 = test system: HT-29
SR = test system: SR
MOLT-4 = test system: MOLT-4
A549 = test system: A549
Malme-3M = test system: Malme-3M
SK-MEL-5 = test system: SK-MEL-5
UO-31 = test system: UO-31
K562 = test system: K562
HCT-116 = test system: HCT-116
SNB-19 = test system: SNB-19
NCI-H460 = test system: NCI-H460
Hs-578T = test system: Hs-578T
UACC-62 = test system: UACC-62
SK-MEL-28 = test system: SK-MEL-28
SK-OV-3 = test system: SK-OV-3
HCC 2998 = test system: HCC 2998
OVCAR-3 = test system: OVCAR-3
MDA-N = test system: MDA-N
SN12C = test system: SN12C
SNB-75 = test system: SNB-75
UACC-257 = test system: UACC-257
T47D = test system: T47D

SMILES: O=c1cc(/N=N\c2ccc(Br)cc2)[nH]c(=S)[nH]1
- GI50 (HL-60): 19.3 µM (inactive)
- GI50 (TK-10): 17.3 µM (inactive)
- GI50 (BT-549): 56.6 µM (inactive)
- GI50 (MCF7): 15.8 µM (inactive)
- GI50 (PC-3): 61.1 µM (inactive)
- GI50 (SK-MEL-2): 11.9 µM (inactive)
- GI50 (CCRF-CEM): 14.6 µM (inactive)
- GI50 (SF-268): 39.3 µM (inactive)
- GI50 (HCT-15): 14.9 µM
- GI50 (HOP-92): 19.5 µM (inactive)
- GI50 (OVCAR-5): 25.6 µM (inactive)
- GI50 (NCI-H226): > 100 µM (inactive)
- GI50 (NCI/ADR-RES): 61.2 µM (inactive)
- GI50 (OVCAR-4): 18.1 µM (inactive)
- GI50 (OVCAR-8): 23.1 µM (inactive)
- GI50 (MDA-MB-231): 17.6 µM (inactive)
- GI50 (ACHN): 15.9 µM (inactive)
- GI50 (M14): 15.7 µM (inactive)
- GI50 (LOX IMVI): 15.3 µM (inactive)
- GI50 (U-251): 36.4 µM (inactive)
- GI50 (CAKI-1): 10.4 µM (inactive)
- GI50 (HOP-62): > 100 µM (inactive)
- GI50 (KM12): 45.1 µM (inactive)
- GI50 (RPMI-8226): 15.9 µM (inactive)
- GI50 (SW-620): 27.2 µM (inactive)
- GI50 (EKVX): 19.8 µM (inactive)
- GI50 (SF-295): > 100 µM (inactive)
- GI50 (DU-145): 61.1 µM (inactive)
- GI50 (NCI-H522): 15.5 µM (inactive)
- GI50 (IGROV-1): 53.1 µM (inactive)
- GI50 (MDA-MB-435): 19.7 µM (inactive)
- GI50 (SF-539): 70.1 µM (inactive)
- GI50 (COLO 205): 21.9 µM (inactive)
- GI50 (RXF 393): 16.9 µM (inactive)
- GI50 (786-0): 4.7 µM (inactive)
- GI50 (NCI-H23): 32.7 µM (inactive)
- GI50 (HT-29): 18.4 µM (inactive)
- GI50 (SR): 27.6 µM (inactive)
- GI50 (MOLT-4): 24.5 µM (inactive)
- GI50 (A549): > 100 µM (inactive)
- GI50 (Malme-3M): 16.4 µM (inactive)
- GI50 (SK-MEL-5): 57.1 µM (inactive)
- GI50 (UO-31): 55.8 µM (inactive)
- GI50 (K562): 21.7 µM (inactive)
- GI50 (HCT-116): 18.2 µM (inactive)
- GI50 (SNB-19): 61 µM (inactive)
- GI50 (NCI-H460): 32.7 µM (inactive)
- GI50 (Hs-578T): 32.7 µM (inactive)
- GI50 (UACC-62): 78.3 µM (inactive)
- GI50 (SK-MEL-28): 20.4 µM (inactive)
- GI50 (SK-OV-3): > 100 µM (inactive)
- GI50 (HCC 2998): 17.8 µM (inactive)
- GI50 (OVCAR-3): 15.4 µM (inactive)
- GI50 (MDA-N): 49.5 µM (inactive)
- GI50 (SN12C): 96.4 µM (inactive)
- GI50 (SNB-75): > 100 µM (inactive)
- GI50 (UACC-257): 27 µM (inactive)
- GI50 (T47D): 17.3 µM (inactive)
